The text below walks through data of patent EP1954678B1, “NOVEL NK1 AND NK2 ANTAGONISTS” (Abbott Products GmbH, priority 2005, dated 2007).

The target of one test is T1, human NK2 receptors (Homo sapiens, UniProt P21452).
T1 construct: expressed in transfected cells; host or cells: CHO cells (membrane preparation)
T1 sequence (P21452 1-398): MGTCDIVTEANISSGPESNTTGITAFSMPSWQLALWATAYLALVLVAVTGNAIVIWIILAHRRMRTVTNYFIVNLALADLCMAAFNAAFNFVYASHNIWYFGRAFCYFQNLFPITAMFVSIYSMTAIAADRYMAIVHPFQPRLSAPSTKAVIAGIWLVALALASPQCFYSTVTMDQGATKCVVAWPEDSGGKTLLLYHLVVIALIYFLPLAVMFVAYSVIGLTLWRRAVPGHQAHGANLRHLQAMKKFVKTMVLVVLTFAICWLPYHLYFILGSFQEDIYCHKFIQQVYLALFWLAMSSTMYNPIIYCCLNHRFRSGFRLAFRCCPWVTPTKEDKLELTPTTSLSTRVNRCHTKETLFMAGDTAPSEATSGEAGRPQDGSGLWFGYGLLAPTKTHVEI
The test is described as follows: Binding of the test substances to NK2 receptors in vitro ([3H]-SR 48968 displacement, CHO cell membranes). The following applies: [3H]-SR 48968 as ligand; membranes of CHO cells expressing the human NK2 receptor; 90 min incubation; Ki calculated from IC50; read-out: pKi (NK2) (converted). How it is done: The affinity of the test substances to human NK2 receptors was measured in vitro. The ability of the test substances to displace the selective NK2 receptor antagonist SR 48968 (= saredutant) used as reference ligand from its corresponding bond was determined.
The receptor binding studies were carried out with radioactively marked [^3H]-SR 48968 (from Amersham) as ligand. For the binding test, different samples of a membrane preparation of CHO cells (= egg cells of the Chinese hamster, Chinese hamster oocytes), which express the human NK2 receptor (for preparation, see N.P. Gerard et al., Journal of Biological Chemistry 265/33 (1990) 20455-20462), were incubated for 90 minutes (= min.) with a solution of the marked ligand, with the incubation mixtures containing no test substance or additions of different concentrations of test substance. Then in each case the membrane-bound ligands in the samples were separated from free ligands by filtration. The fraction remaining in the filter was washed several times with buffer solution, before its radioactivity was measured using a liquid scintillation counter. That concentration which effects half-maximum displacement of the bound reference ligand was determined as IC50 of the respective test substance. The inhibition constant (Ki value) of the test substance was calculated from the respective IC50 value, and was stated as the negative logarithmised value thereof (pKi).
If several measurements were performed, the average thereof was listed each time. The pKi value is a measurement of the affinity of the test substances to human NK2 receptors.

Test [1] deals with T2, NK2 receptors (Cavia porcellus, UniProt Q64077).
T2 sequence (Q64077 1-402): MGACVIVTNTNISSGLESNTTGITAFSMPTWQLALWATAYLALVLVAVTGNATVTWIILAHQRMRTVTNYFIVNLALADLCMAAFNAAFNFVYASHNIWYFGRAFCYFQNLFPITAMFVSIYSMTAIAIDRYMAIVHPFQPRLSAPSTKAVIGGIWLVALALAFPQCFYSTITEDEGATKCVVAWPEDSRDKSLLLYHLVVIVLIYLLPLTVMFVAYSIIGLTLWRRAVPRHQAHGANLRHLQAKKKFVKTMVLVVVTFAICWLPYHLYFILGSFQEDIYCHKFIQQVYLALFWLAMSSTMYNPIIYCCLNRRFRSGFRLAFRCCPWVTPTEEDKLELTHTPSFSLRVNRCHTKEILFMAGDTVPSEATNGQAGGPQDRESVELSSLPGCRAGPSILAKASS
The experiment in a line: Functional NK2 antagonism on isolated guinea pig gall-bladder preparations (NKA induced contraction). Also on record: from tissue; host or cells: guinea pig gall-bladder preparations; species or system Pirbright-White guinea pigs. The protocol:
The NK2 receptor-antagonising action of the test substances was determined on isolated gall-bladder preparations from Pirbright-White guinea pigs, held in an oxygen-saturated nutrient solution. To this end, the preparations were fastened on one hand in the nutrient solution to organ holders and on the other hand on a force meter by a thread.
The concentration of the test substances was increased iteratively in the subsequent experiments as a function of the result in logarithmic whole or half steps, until at least one concentration above or below 50% inhibition of contraction was determined (up to at most 10^-5 mol/l). For each concentration, the average value of inhibition of contraction was calculated from 2 to 4 preparations. In each case, the concentration of half-maximum inhibition (IC50) per test substance was calculated as characteristic variable.

Test [2] addresses T2, NK2 receptors. The experiment in a line: NK-2-receptor-antagonistic effectiveness in vivo in anaesthetised guinea pigs (NKA test stimulus: late hypotension, bronchoconstriction, colonic pressure). Also on record: from tissue; host or cells: whole anaesthetised guinea pig (in vivo); species or system Pirbright-White guinea pigs. The settings on record: for ED50: guinea pig; for oral activity as NK2 receptor antagonist: result in words, oral administration. The source says:
The NK-1- and NK-2-antagonistic activities of the test substances were investigated in anaesthetised guinea pigs in each case after intravenous (= i.v.) and oral (= p.o.) administration in vivo. With the present test model it is possible to detect both NK-2-antagonistic effects in three different organ systems (respiratory tracts, colon and circulation) and NK-1-antagonistic effects (rapid drop in blood pressure) in an animal simultaneously.
Pirbright-White guinea pigs of a body weight of 500-700 g were anaesthetised with ketamine/xylazine (67/13 mg/kg subcutaneously, initial dose, further doses administered as required). The animals were provided with an intravenous catheter in order to administer the substance and an intra-arterial catheter to measure the blood pressure. The animals were artificially ventilated via a tracheal cannula and the respiratory pressure was recorded by means of a pressure transducer. A balloon was introduced into the distal colon of the animals for manometric recording of colon motility by means of a pressure transducer. Blood pressure, heart rate, respiratory pressure and colonic pressure were measured continuously for each animal and plotted on a recorder and by means of a digital data-processing system. […] The second phase of delayed hypotension (= phase of maximum hypotension after 2-5 min.) on the other hand is mediated via NK-2 receptors, since they can be blocked by specific NK-2 receptor antagonists. […] Table 6: NK-1- and NK-2-receptor-antagonistic effective-ness of the test substances of Formula I on guinea pigs in vivo after intravenous administration
These ED50 values obtained from cumulative dose effect curves are plotted in table 6.
The antagonistic effects of the test substances were then determined as "area under the curve" ("AUC") over the investigation period after administration of the test substances (1 - 180 min after administration) and the ED50 values after oral administration obtained therefrom were plotted in table 7. Table 7: NK-1- and NK-2-receptor-antagonistic effective-ness of the test substances of Formula I on guinea pigs in vivo after oral administration

Setting [3] is: iv, read-out: ED50 iv after 1 min (cumulative) NK2 (broncho-constriction).
The mark [4] stands for this setting: iv, read-out: ED50 iv after 1 min (cumulative) NK2 (colonic motility).
Where [5] appears, read: iv, read-out: ED50 iv after 1 min (cumulative) NK2 (late hypotension).
The mark [6] stands for this setting: oral, from AUC of antagonistic effect 1 - 180 min after administration, read-out: ED50 AUC1-180 min oral NK2 (broncho-constriction).
The mark [7] stands for this setting: oral, from AUC of antagonistic effect 1 - 180 min after administration, read-out: ED50 AUC1-180 min oral NK2 (colonic motility).
Where [8] appears, read: oral, from AUC of antagonistic effect 1 - 180 min after administration, read-out: ED50 AUC1-180 min oral NK2 (late hypotension).

Read-outs that look alike come from different tables or passages of the source.

With `CN(C[C@@H](CCN1CCN([C@@H](c2ccco2)[C@H]2COC(=O)O2)CC1)c1ccc(Cl)c(Cl)c1)C(=O)c1cc(C#N)cc2ccccc12` [Compound 11, 3-cya no-N-[(2S)-2-(3,4-dichlorophenyl)-4-(4-{(R)-2-furyl[(4S)-2-oxo-1,3-dioxolan-4-yl]methyl}piperazin-1-yl)butyl]-N-methyl-1-naphthamide], the Ki on human NK2 receptors is 25.1 nM. 15.8 nM corresponded to half-maximal inhibition at NK2 receptors [1] (IC50). Besides, the 50% effective dose (ED50) (as a rule, the midpoint of the dose-response relation) was 0.13 µmol/kg on NK2 receptors [2] (setting [3]), 0.132 µmol/kg on NK2 receptors [2] (setting [4]) and 0.145 µmol/kg at NK2 receptors [2] (setting [5]).

As to `CN(C[C@@H](CCN1CCN(C(CO)(CO)c2ccco2)CC1)c1ccc(Cl)c(Cl)c1)C(=O)c1cc(C#N)cc2ccccc12` [Compound 6, 3-cyano-N-[(2S)-2-(3,4-dichlorophenyl)-4-{4-[1-(2-furyl)-2-hydroxy-1-(hydroxymethyl)ethyl]piperazin-1-yl}butyl]-N-methyl-1-naphthamide], the Ki on human NK2 receptors was 39.8 nM. At NK2 receptors [1], the IC50 – broadly, the concentration at which inhibition is half-maximal – is 39.8 nM. The ED50 was 0.595 µmol/kg on NK2 receptors [2] (setting [3]), 0.05 µmol/kg on NK2 receptors [2] (setting [4]) and 0.282 µmol/kg on NK2 receptors [2] (setting [5]).

In the case of `CN(C[C@@H](CCN1CCN([C@@H](c2ccco2)[C@H](O)[C@@H](O)[C@H](O)CO)CC1)c1ccc(Cl)c(Cl)c1)C(=O)c1cc(C#N)cc2ccccc12` [Compound 2, 3-cyano-N-[(2S)-2-(3,4-dichlorophenyl)-4-{4-[(1R,2S,3R,4R)-1-(2-furyl)-2,3,4,5-tetrahydroxypentyl]piperazin-1-yl}butyl]-N-methyl-1-naphthamide], at human NK2 receptors, the Ki is 79.4 nM. This compound gave an IC50 against NK2 receptors [1] of 20 nM. For the same compound, the ED50 on NK2 receptors [2] (setting [3]) was under 0.01 µmol/kg; at NK2 receptors [2] (setting [4]), 0.085 µmol/kg; on NK2 receptors [2] (setting [5]) it was 0.106 µmol/kg; at NK2 receptors [2] (setting [6]) it was 11.7 µmol/kg; at NK2 receptors [2] (setting [7]), 6 µmol/kg; at NK2 receptors [2] (setting [8]), 14.8 µmol/kg. Besides, the “oral activity as NK2 receptor antagonist” value at NK2 receptors [2] was “active orally”.

For the compound `CN(C[C@@H](CCN1CCN([C@@H](c2ccco2)[C@H](O)CO)CC1)c1ccc(Cl)c(Cl)c1)C(=O)c1cc(C#N)cc2ccccc12` [Compound 1, 3-cyano-N-[(2S)-2-(3,4-dichlorophenyl)-4-{4-[(1R,2S)-1-(2-furyl)-2,3-dihydroxypropyl]piperazin-1-yl}butyl]-N-methyl-1-naphthamide], at human NK2 receptors, the Ki is 7.94 nM. The same compound had an IC50 at NK2 receptors [1] of 2 nM. The ED50 on NK2 receptors [2] (setting [3]) was found to be 0.321 µmol/kg; at NK2 receptors [2] (setting [4]), 0.027 µmol/kg; on NK2 receptors [2] (setting [5]) it was 0.643 µmol/kg; at NK2 receptors [2] (setting [6]), 3.1 µmol/kg; on NK2 receptors [2] (setting [7]), 5.5 µmol/kg; on NK2 receptors [2] (setting [8]), 3.1 µmol/kg. Also, at NK2 receptors [2], the “oral activity as NK2 receptor antagonist” value is listed as “active orally”.
